Like-named read-outs stand apart in the source and are kept apart here.
Assays:
[1] = target: T1, JAK2 JH2 WT (V536-D812) [W659A, W777A, F794H solubilizing mutations] (Homo sapiens, UniProt O60674, F794H/W659A/W777A); experiment: Surface Plasmon Resonance (SPR) binding assay, JAK2 JH2 domain
T1 construct: **JAK2 JH2 WT (V536-D812) [W659A, W777A, F794H solubilizing mutations]; C-thrombin-avi-His6; thrombin cleavage site (C); His6 (C); purchased Biortus
Outline: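 Kinetics came from 1:1 fits of single-cycle runs at 20 °C: four 3-fold dilutions from 5 uM for JH1 or 500 nM for JH2, 60 s association, and 300 s or 1200 s dissociation respectively. Protein was freshly captured per compound in the presence of 10 uM stabilizer compound, with running buffer of pH 7.5 HEPES/NaCl/glycerol/DTT plus 2% DMSO.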

[2] = tested on: TF1 JAK2 V617F STAT5 reporter; experiment: Cellular TF1 STAT5 assay (luciferase reporter), JAK2 V617F; format: cell-based; conditions: read-out: Cell PD TF1 V617F STAT5 (IC50)
Outline: (§1)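 TF1 erythroleukemia cells expressing V617F JAK2 with a STAT3 or STAT5 luciferase reporter were seeded at 10,000 cells/well onto compound (10-point, 1:3 dilutions; 10 mM top stock at 1000×) and incubated 18-20 h at 37 °C, 5% CO2. Luminescence was read after ONE-glo addition, 10 min at room temperature.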

[3] = tested on: TF1 JAK2 V617F STAT3 reporter; experiment: Cellular TF1 STAT3 assay (luciferase reporter), JAK2 V617F; format: cell-based; conditions: read-out: Cell PD-TF1 JAK2 V617F STAT3 (IC50)
Outline: as §1

[4] = Homo sapiens, TF-1, TF1 cells, JAK2 V617F

T1 sequence (O60674 536-812 W659A/W777A/F794H): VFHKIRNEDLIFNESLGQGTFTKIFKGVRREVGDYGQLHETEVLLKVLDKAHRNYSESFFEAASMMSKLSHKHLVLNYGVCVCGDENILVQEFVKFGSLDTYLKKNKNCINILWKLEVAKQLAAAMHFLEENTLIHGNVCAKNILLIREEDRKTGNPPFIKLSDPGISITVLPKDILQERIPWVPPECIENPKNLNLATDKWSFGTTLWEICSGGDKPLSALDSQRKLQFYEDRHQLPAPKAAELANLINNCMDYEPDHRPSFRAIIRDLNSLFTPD

Kd ([1]; SPR, JAK2 JH2 domain) [nM]	IC50 ([2]; TF1 JAK2 V617F) [nM]	IC50 ([3]; TF1 JAK2 V617F) [nM]	Kd [1] [nM]	IC50 [2, 4] [nM]	IC50 [3, 4] [nM]	SMILES
–	–	–	0.01 to 10	500 to 5000	500 to 5000	CNC(=O)c1nnc(NC(=O)C2CC2)cc1Nc1cccc(-c2cn(C3CN(Cc4cccc(C#N)n4)[C@@H]3C)nn2)c1OC (stereo in doubt) [Compound 237]
–	–	–	0.01 to 10	50 to 500	50 to 500	CNC(=O)c1nnc(NC(=O)C2CC2)cc1Nc1cccc(-c2cnn(C3CN(Cc4cccc(CO)n4)C3)c2)c1OC [Compound 228]
–	–	–	0.01 to 10	500 to 5000	500 to 5000	COc1c(Nc2cc(NC(=O)C3CC3)nn3cc(C)nc23)ccc(C)c1-c1ccc(C(=O)N(C)Cc2cc(C#N)ccn2)nc1 [Compound 256]
–	–	–	0.01 to 10	500 to 5000	5000 to 100000	CNC(=O)c1nnc(NC(=O)C2CC2)cc1Nc1cccc(-c2ccc(C(=O)N(C)Cc3scnc3C)nc2)c1OC [Compound 210]
–	–	–	10 to 50	50 to 500	50 to 500	CNC(=O)c1nnc(NC(=O)C2CC2)cc1Nc1cccc(-c2cnn(C3CN(Cc4cccc(C(O)C(C)C)n4)C3)c2)c1OC (stereo not drawn) [Compound 308]
–	–	–	0.01 to 10	500 to 5000	500 to 5000	CNCc1cnc(CN(C)C(=O)c2ccc(-c3cccc(Nc4cc(NC(=O)C5CC5)nnc4C(=O)NC)c3OC)cn2)s1 [Compound 282]
–	–	–	50 to 500	5000 to 100000	5000 to 100000	CNC(=O)c1nnc(NC(=O)C2CC2)cc1Nc1cccc(C(=O)N[C@@H](C)C2CN(Cc3ccccn3)C2)c1OC (single isomer, unassigned) [Compound 245]
0.01 to 10	–	–	–	50 to 500	50 to 500	[2H]C([2H])(c1cccnn1)N1CC(n2cc(-c3cccc(Nc4cc(NC(=O)C5CC5)nnc4C(=O)NC)c3OC)cn2)C1 [Compound 408]
–	–	–	0.01 to 10	500 to 5000	500 to 5000	CNC(=O)c1nnc(NC(=O)C2CC2)cc1Nc1cccc(-c2ccc(C(=O)N(C)Cc3ncc(COC)s3)cc2)c1OC [Compound 316]
–	–	–	0.01 to 10	500 to 5000	500 to 5000	CNC(=O)c1nnc(NC(=O)C2CC2)cc1Nc1cccc(-c2cnn(C3CN(C(C)c4cccc(C#N)n4)C3)c2)c1OC (racemic) [Compound 227]
–	–	–	0.01 to 10	50 to 500	50 to 500	CNC(=O)c1nnc(NC(=O)C2CC2)cc1Nc1cccc(-c2cnn(C3CN(Cc4cccc(C(=O)N5CC(F)(F)C5)n4)C3)c2)c1OC [Compound 311]
–	–	–	0.01 to 10	500 to 5000	500 to 5000	CNC(=O)c1nnc(NC(=O)C2CC2)cc1Nc1ccc(C)c(-c2ccc(C(=O)N(C)Cc3cn(C)nc3C)cn2)c1OC [Compound 278]
–	–	–	0.01 to 10	50 to 500	50 to 500	CNC(=O)c1nnc(NC(=O)C2CC2)cc1Nc1cccc(-c2cn([C@H]3CN(Cc4cccc(Cl)n4)[C@@H]3C)nn2)c1OC (stereo in doubt) [Compound 236]
–	–	–	0.01 to 10	5000 to 100000	5000 to 100000	CNC(=O)c1nnc(NC(=O)C2CC2)cc1Nc1cccc(-c2ccc(C(=O)N(C)C[C@@H]3CCCC3(F)F)cc2)c1OC (single isomer, unassigned) [Compound 208]
–	–	–	0.01 to 10	5000 to 100000	5000 to 100000	CNC(=O)c1nnc(NC(=O)C2CC2)cc1Nc1cccc(-c2cnn(C3CN(Cc4cccc(C(=O)O)n4)C3)c2)c1OC [Compound 312]
0.01 to 10	–	–	–	5000 to 100000	500 to 5000	CNC(=O)c1nnc(NC(=O)C2CC2)cc1Nc1cccc(-c2cnn([C@H]3C[C@H]([C@H](O)c4ccccn4)C3)c2)c1OC (single isomer, unassigned) [Compound 397]
–	–	–	0.01 to 10	50 to 500	50 to 500	CNC(=O)c1nnc(NC(=O)C2CC2)cc1Nc1cccc(-c2cnn([C@H]3CCN(Cc4cccc(C#N)n4)C3)c2)c1OC [Compound 319]
–	–	–	0.01 to 10	50 to 500	50 to 500	CNC(=O)c1nnc(NC(=O)C2CC2)cc1Nc1cccc(-c2cnn(C3CN(Cc4cccc(C(C)(C)C#N)n4)C3)c2)c1OC [Compound 277]
–	–	–	0.01 to 10	500 to 5000	500 to 5000	CNC(=O)c1nnc(NC(=O)C2CC2)cc1Nc1ccc(C)c(-c2cn(C3CN(Cc4cccc(C#N)n4)C3)nn2)c1OC [Compound 268]
–	–	–	10 to 50	5000 to 100000	5000 to 100000	CNC(=O)c1nnc(NC(=O)C2CC2)cc1Nc1cccc(-c2cnn(C3CN(Cc4cccc(C#N)n4)C3)c2)c1 [Compound 232]
–	–	–	50 to 500	5000 to 100000	5000 to 100000	CNC(=O)c1nnc(NC(=O)C2CC2)cc1Nc1cccc(-c2cc(C3CN(Cc4cccc(C#N)n4)C3)n(C)n2)c1OC [Compound 202]
–	–	–	0.01 to 10	50 to 500	50 to 500	C=Cc1cccc(CN2CC(n3cc(-c4cccc(Nc5cc(NC(=O)C6CC6)nnc5C(=O)NC)c4OC)cn3)C2)n1 [Compound 368]

Second part, the compound before the results:

SMILES	Kd ([1]; SPR, JAK2 JH2 domain) [nM]	IC50 ([2]; TF1 JAK2 V617F) [nM]	IC50 ([3]; TF1 JAK2 V617F) [nM]	Kd [1] [nM]	IC50 [2, 4] [nM]	IC50 [3, 4] [nM]
CNC(=O)c1nnc(NC(=O)C2CC2)cc1Nc1cccc(-c2ccc(C(=O)N(C)Cc3nc(C)no3)nc2)c1OC [Compound 102]	0.01 to 10	500 to 5000	500 to 5000	–	–	–
CNC(=O)c1nnc(NC(=O)C2CC2)cc1Nc1cccc(-c2ccc(C(=O)N(C)[C@H](C)c3ccn(C)n3)nc2)c1OC (single isomer, unassigned) [Compound 161]	0.01 to 10	500 to 5000	500 to 5000	–	–	–
CNC(=O)c1nnc(NC(=O)C2CC2)cc1Nc1cccc(-c2ccc(C(=O)N(C)Cc3nccs3)nc2)c1OC [Compound 58]	0.01 to 10	500 to 5000	500 to 5000	–	–	–
CNC(=O)c1nnc(NC(=O)C2CC2)cc1Nc1cccc(-c2ccc(C(=O)N(C)Cc3cncc(C#N)c3)nc2)c1OC [Compound 188]	0.01 to 10	500 to 5000	500 to 5000	–	–	–
CNC(=O)c1nnc(NC(=O)C2CC2)cc1Nc1cccc(-c2cnn(C3CN(Cc4cccc(C(F)(F)F)n4)C3)c2)c1OC [Compound 200]	–	–	–	0.01 to 10	50 to 500	50 to 500
CNC(=O)c1nnc(NC(=O)C2CC2)cc1Nc1cccc(-c2cnc(C(=O)N(C)Cc3ccn(C)n3)c(F)c2)c1OC [Compound 53]	0.01 to 10	500 to 5000	500 to 5000	–	–	–
CNC(=O)c1nnc(NC(=O)C2CC2)cc1Nc1cccc(-c2cnn(C3CN([C@H](C)c4ccccn4)C3)c2)c1OC (single isomer, unassigned) [Compound 163]	0.01 to 10	5000 to 100000	500 to 5000	–	–	–
CNC(=O)c1nnc(NC(=O)C2CC2)cc1Nc1cccc(-c2ccc(NC(=O)Cc3cccn(C)c3=O)cc2)c1OC [Compound 2]	0.01 to 10	5000 to 100000	5000 to 100000	–	–	–
CNC(=O)c1nnc(NC(=O)C2CC2)cc1Nc1cccc(-c2ccc(C(=O)N(C)Cc3cn(C)cn3)nc2)c1OC [Compound 86]	0.01 to 10	500 to 5000	500 to 5000	–	–	–
CNC(=O)c1nnc(NC(=O)C2CC2)cc1Nc1cccc(-c2ccc(C(=O)N(C)CC3Cc4ccccc4CO3)nc2)c1OC (stereo not drawn) [Compound 54]	0.01 to 10	5000 to 100000	500 to 5000	–	–	–
CNC(=O)c1nnc(NC(=O)C2CC2)cc1Nc1cccc(-c2cc(C3CN(Cc4cnn(C)c4)C3)n(C)n2)c1OC [Compound 187]	50 to 500	5000 to 100000	5000 to 100000	–	–	–
CNC(=O)c1nnc(NC(=O)C2CC2)cc1Nc1cccc(-c2cnn(C3CN(Cc4csc(C)n4)C3)c2)c1OC [Compound 126]	0.01 to 10	50 to 500	50 to 500	–	–	–
CNC(=O)c1nnc(NC(=O)C2CC2)cc1Nc1cccc(-c2ccc(C(=O)N(C)Cc3csc(C)n3)nc2)c1OC [Compound 174]	0.01 to 10	50 to 500	50 to 500	–	–	–
CNC(=O)c1nnc(NC(=O)C2CC2)cc1Nc1cccc(-c2cn(C3CN(Cc4cccc(C#N)n4)C3)nc2C)c1OC [Compound 185]	0.01 to 10	500 to 5000	500 to 5000	–	–	–
CNC(=O)c1nnc(NC(=O)C2CC2)cc1Nc1cccc(-c2cnc(C(=O)N(C)Cc3ccccn3)nc2)c1OC [Compound 13]	0.01 to 10	500 to 5000	500 to 5000	–	–	–
CNC(=O)c1nnc(NC(=O)C2CC2)cc1Nc1cccc(-c2cnn(C3CN(C(C)c4ccccn4)C3)c2)c1OC (racemic) [Compound 127]	0.01 to 10	500 to 5000	500 to 5000	–	–	–
CNC(=O)c1nnc(NC(=O)C2CC2)cc1Nc1ccc(C)c(-c2cnc(C(=O)N(C)C[C@H]3CCN(C)C3=O)c(F)c2)c1OC (single isomer, unassigned) [Compound 117]	0.01 to 10	5000 to 100000	5000 to 100000	–	–	–
CNC(=O)c1nnc(NC(=O)C2CC2)cc1Nc1cccc(-c2ccc(C(=O)N(C)Cc3ccc(C)cn3)nc2)c1OC [Compound 134]	0.01 to 10	500 to 5000	50 to 500	–	–	–
[2H]C([2H])([2H])NC(=O)c1nnc(NC(=O)C2CC2)cc1Nc1cccc(-c2cnc(C(=O)N(C)Cc3ccn(C)n3)nc2)c1OC [Compound 62]	0.01 to 10	500 to 5000	500 to 5000	–	–	–

Source: US20240368122A1, “JAK2 INHIBITORS AND METHODS OF USE THEREOF” (RELAY THERAPEUTICS, INC., priority 2021, published 2024)
